According to patent publication EP1507010B1, “Control of the gene expression in eukaryotic cells” (priority 1999, dated 2001):

Columns and labels:
[1] = target: T1, HA-VP16-TraR fusion (TraR from Agrobacterium strain A348 fused to VP16 activation domain; pMON53030) (UniProt P06492+P33905); assay: Transient GUS reporter assay in transfected carrot protoplasts with VP16-TraR effector; format: cell-based, Agrobacterium tumefaciens; set-up: + inducer (average of the GUS activities) / + inducer (GUS activity, average) / GUS activity, average (with AHL or analog at the stated concentration) / GUS activity, average (+ inducer) / GUS activity, average: unit not given here; settings: for GUS activity, average ('- inducer'): 1 µM of the AHL or analog; for GUS activity, average ('- inducer') / GUS activity, average (with AHL or analog at the stated concentration) / GUS activity, average (+ inducer) / GUS activity, average / fold +/-: reporter TraA8(4X)-GUS + 35S-VP16-TraR; for GUS activity, average (with AHL or analog at the stated concentration): 5 µM of the AHL or analog; for GUS activity, average: 25 µM of the AHL or analog
T1 construct: PCR fragments containing open reading frames are cloned into an expression construct; expressed in transfected cells; host or cells: carrot protoplasts from cell suspension culture, transient transfection
Excerpt: Carrot protoplasts were transfected with the TraA8 (4X)- GUS reporter construct with the 35S-VP16-TraR activator gene and tested for GUS induction by application of wild type AHL and the various AHL analogs described in Example 8. Table 8: Transient assays in carrot protoplasts of AHL analogs

[2] = tested on: HA-VP16-EsaR fusion (pMON53005); assay: Transient GUS reporter assay in transfected carrot protoplasts with VP16-EsaR effector; format: cell-based, Erwinia sterwartii; settings: reporter esaR box (4X)-GUS pMON53009; dose-dependent, concentration not given; 36 hours
[3] = ratio of GUS activity at 12.5 µM to that at 5 µM
[4] = ratio of GUS activity at 75 µM to that at 25 µM
[5] = ratio of GUS activity at […] to that at 1 µM

Q: Which results are given for `CCCCCCC(C(C)=O)C(=O)N[C@@H](CCO)C(=O)O` (stereo partly drawn) [compound 26, N-(α-Hexyl-b-ketobutanoyl)-(S)-homoserine]?
A: GUS activity, average ('- inducer') [1]: 184.7; GUS activity, average (with AHL or analog at the stated concentration) [1]: 387.6; GUS activity, average (+ inducer) ([1]; 12.5 µM of the AHL or analog): 1812.5; GUS activity, average [1]: 1515.3; GUS activity, average (+ inducer) ([1]; 75 µM of the AHL or analog): 2879.9; fold +/- [1, 3]: 4.7 fold; fold +/- [1, 4]: 1.9 fold; fold +/- [1, 5]: 1.2 fold

Q: `CCCCCC(=O)C(CCCC)C(=O)N[C@@H](CCO)C(=O)O` (stereo partly drawn) [compound 25, N-(α-Butyl-b-ketooctanoyl)-(S)-homoserine] was tested. Which “GUS activity, average ('- inducer')” value [1] did it give?
A: 256.9

Q: What about the “GUS activity, average (with AHL or analog at the stated concentration)” value [1] of the same molecule?
A: 309.3

Q: And the “GUS activity, average (+ inducer)” value ([1]; 12.5 µM of the AHL or analog)?
A: 284.7

Q: And the “GUS activity, average” value [1]?
A: 224.2

Q: And the “GUS activity, average (+ inducer)” value ([1]; 75 µM of the AHL or analog)?
A: 252.9

Q: What about the “fold +/-” value [1, 3] of the same molecule?
A: 0.9 fold

Q: And the “fold +/-” value [1, 4]?
A: 1.1 fold

Q: What about the “fold +/-” value [1, 5] of the same molecule?
A: 2.1 fold

Q: For `CCCCCC(=O)C(CC)C(=O)N[C@@H](CCO)C(=O)O` (stereo partly drawn) [compound 19, N-(α-Ethyl-b-ketooctanoyl)-(S)-homoserine], which “GUS activity, average ('- inducer')” value [1] is on record?
A: 469.6

Q: What about the “GUS activity, average (with AHL or analog at the stated concentration)” value [1] of the same molecule?
A: 2239.4

Q: And the “GUS activity, average (+ inducer)” value ([1]; 12.5 µM of the AHL or analog)?
A: 5377.3

Q: And the “GUS activity, average” value [1]?
A: 6732.3

Q: What about the “GUS activity, average (+ inducer)” value ([1]; 78 µM as printed) of the same molecule?
A: 7569.1

Q: And the “fold +/-” value [1, 3]?
A: 2.4 fold

Q: And the “fold +/-” value ([1]; ratio of GUS activity at 78 µM to that at 25 µM)?
A: 1.1 fold

Q: And the “fold +/-” value [1, 5]?
A: 2.8 fold

Q: `CCCC(=O)CC(=O)N[C@H]1CCOC1=O` [C6, N-(3-oxohexanoyl)-L-homoserine lactone] was tested. Which Fold induction ([1]; 25 [i M] inducer (OOHL, or C6) vs no inducer, reporter pMON53031, pMON53030 60 µg, 36 hrs, 25 µM) did it give?
A: 1.6 fold

Q: What about the “+ inducer (average of the GUS activities)” value ([1]; 25 [i M] inducer (OOHL, or C6), reporter pMON53031, pMON53030 60 µg, 36 hrs) of the same molecule?
A: 568.5

Q: And the “activation by the VP16-EsaR construct diminished by addition of the inducer” value [2]?
A: up to 3.3 fold
